# Measurements published in US20150118179A1, “BIOCIDAL COMPOUNDS AND METHODS FOR USING SAME” (UNIVERSITY OF MANITOBA, priority 2012, published 2015).
# Experiments:
# [1] = system: CA-MRSA 40065; assay: Biocidal activity in bacterial suspension (Example 18); type: cell-based, Staphylococcus aureus; details: Table 2, 15 ppm [Cl+], inoculum 1.57-1.75 × 10^6 CFU/mL
# Procedure: Logarithmic-phase cultures of MRSA were prepared using similar way except TSA broth was used instead.
# (§1) Biocidal activity of synthetic compounds was completed as followed. To 20 mL of bacterial suspension (10^5 or 10^6 cfu/mL) in a centrifuge tube was added 30 μL solution of synthetic compounds (0.282 M stock solution) to achieve a final [Cl^+] of 15 ppm. Timing of the exposure to the disinfectant was started immediately with the addition of the synthetic compound. After predetermined contact time, 1.0 mL aliquots were withdrawn and added to an equal volume of 0.02 N sodium thiosulfate in PBS (0.1 M, pH 7.4). The quenched suspension was serially diluted and 100 μL of each resulting dilution was placed onto nutrient agar plates. After being incubated at 37° C. for 24 hours, the viable bacterial colonies on the plates were counted. Bacterial reduction was reported according to:
# (§2) Percentage reduction of bacteria (%)=(A−B)/A×100
# (§3) Log reduction=Log(A/B) (4)
# (§4) where A is the number of bacteria in the starting inoculum (cfu/mL), and B is the number of bacteria retrieved from synthetic compounds (cfu/mL).
# [2] = system: P. aeruginosa 73104; assay: as above; type: cell-based, Pseudomonas aeruginosa; details: 15 ppm [Cl+]
# Procedure: Logarithmic-phase cultures of P. aeruginosa were prepared by initially suspending several colonies in cation-supplemented Mueller-Hinton broth (Oxoid, Nepean, Ontario, Canada) at a density equivalent to a 0.5 McFarland standard (1×10^8 cfu/mL). This suspension was then diluted 1:100 and 20 μL of the diluted suspension was further diluted in 60 mL of cation-supplemented Mueller-Hinton broth. Following overnight growth at 37° C., suspensions were diluted 1:[…] to get inoculums of approximately 1×10^6 or 1×10^5 cfu/mL.
# as §1, §2, §3, §4
# [3] = system: MRSA (#77090); assay: Biocidal activity in bacterial suspension (Example 17); type: cell-based, Staphylococcus aureus; details: 15 ppm [Cl+]
# Procedure: (§5) In the model study we investigated the bactericidal performance of small molecules 2 and 43 against three strains for each bacterium at the concentration of 15 ppm.
# (§6) Tryptone Soya Agar (TSA) was used for bacterial culture. After sub-cultured from stocks, bacteria were allowed to grow at 37° C. for 18-20 hours to obtain logarithmic-phase cultures. Biocidal activity of 2 and 43 were completed as followed. To 20 mL bacterial suspension (10^6-10^7 colony forming units (CFU)/mL) in a centrifuge tube was added 30 μL it 2 or 43 solutions (0.28 M stock solution) respectively to achieve final 15 ppm [Cl^+]). Timing of the exposure to the disinfectant was started immediately with the addition of the synthetic compound 2 or 43. After the contact for 5 min, 10 min, and 20 min respectively, 1.0 mL aliquots were withdrawn and added to an equal volume of 0.02 N sodium thiosulfate in PBS (0.05 M, pH 7.0). The quenched suspension was serially diluted and 100 μL of each resulting dilutions were placed onto nutrient agar plates. The same procedure was also applied to compounds 1 and 42 as controls. After being incubated at 37° C. for 24 hours, viable bacterial colonies on the plates were counted. Bacterial reduction was reported according to the following equation.
# as §2
# (§7) Where A is the number of bacteria retrieved from controls (CFU/mL), and B is the number of bacteria retrieved from 2 or 43 (CFU/mL).
# [4] = system: MRSA (#70527); assay: as above; type: cell-based, Staphylococcus aureus; details: 15 ppm [Cl+]
# Procedure: as §5, §6, §2, §7
# [5] = system: MRSA ATCC33592; assay: as above; type: cell-based, Staphylococcus aureus; details: 15 ppm [Cl+]
# Procedure: as §5, §6, §2, §7
# [6] = system: E. coli ATCC 25922; assay: as above; type: cell-based, Escherichia coli; details: 15 ppm [Cl+]
# Procedure: as §5, §6, §2, §7
# [7] = system: MDR-E. coli (#95882); assay: as above; type: cell-based, Escherichia coli; details: 15 ppm [Cl+]
# Procedure: as §5, §6, §2, §7
# [8] = system: MDR-E. coli (#70094); assay: as above; type: cell-based, Escherichia coli; details: 15 ppm [Cl+]
# Procedure: as §5, §6, §2, §7
# [9] = Table 3, contact 60 min, inoculum 2.26 × 10^5 CFU/mL
# [10] = Table 3, contact 90 min, inoculum 2.26 × 10^5 CFU/mL
# [11] = Table 4, contact 3 min, inoculum 2.26-2.98 × 10^5 CFU/mL
# [12] = Table 4, contact 5 min, inoculum 2.26-2.98 × 10^5 CFU/mL
# [13] = Table 4, contact 10 min, inoculum 2.26-2.98 × 10^5 CFU/mL
# [14] = Table 4, contact 20 min, inoculum 2.26-2.98 × 10^5 CFU/mL
# [15] = Table 4, contact 30 min, inoculum 2.26-2.98 × 10^5 CFU/mL
# [16] = Table 4, contact 45 min, inoculum 2.26-2.98 × 10^5 CFU/mL
# [17] = Table 4, contact 60 min, inoculum 2.26-2.98 × 10^5 CFU/mL
smiles,measurement,setting,value
CC1(C)C(=O)N(CCC[N+](C)(C)C)C(=O)N1Cl [Compound 2],Bacteria reduction %,[1]; contact 3 min,92.8%
same,Bacteria reduction Log10,[1]; contact 3 min,1.14 Log10
same,Bacteria reduction %,[1]; contact 5 min,93.8%
same,Bacteria reduction Log10,[1]; contact 5 min,1.20 Log10
same,Bacteria reduction %,[1]; contact 10 min,90.3%
same,Bacteria reduction Log10,[1]; contact 10 min,1.01 Log10
same,Bacteria reduction %,[1]; contact 60 min,99.6%
same,Bacteria reduction Log10,[1]; contact 60 min,2.36 Log10
same,Reduction of P. aeruginosa,"[2]; 10^6 cfu/mL P. aeruginosa, within 60 min of contact",cannot bring any significant reduction
same,Bacteria reduction %,"[2]; Table 3, contact 3 min, inoculum 2.26 × 10^5 CFU/mL",37.6 ± 1.9%
same,Bacteria reduction %,"[2]; Table 3, contact 5 min, inoculum 2.26 × 10^5 CFU/mL",26.6 ± 12.5%
same,Bacteria reduction Log10,"[2]; Table 3, contact 10 min, inoculum 2.26 × 10^5 CFU/mL",0.41 ± 0.02 Log10
same,Bacteria reduction %,[2]; [9],100%
same,Bacteria reduction Log10,[2]; [9],5.35 Log10
same,Bacteria reduction %,[2]; [10],100%
same,Bacteria reduction Log10,[2]; [10],5.35 Log10
same,Bacteria reduction %,[2]; [11],37.6%
same,Bacteria reduction Log,[2]; [11],0.2 Log
same,Bacteria reduction %,[2]; [12],26.6%
same,Bacteria reduction Log,[2]; [12],0.14 Log
same,Bacteria reduction %,[2]; [13],61.5%
same,Bacteria reduction Log,[2]; [13],0.41 Log
same,Bacteria reduction %,[2]; [14],99.65%
same,Bacteria reduction Log,[2]; [14],2.46 Log
same,Bacteria reduction %,[2]; [15],99.99%
same,Bacteria reduction Log,[2]; [15],4.02 Log
same,Bacteria reduction %,[2]; [16],99.99%
same,Bacteria reduction Log,[2]; [16],4.67 Log
same,Bacteria reduction %,[2]; [17],100%
same,Bacteria reduction Log,[2]; [17],5.47 Log
same,Bacteria reduction %,[3]; contact 5 min,100%
same,Bacteria reduction Log10,[3]; contact 5 min,6.16 Log10
same,Bacteria reduction %,[3]; contact 10 min,100%
same,Bacteria reduction Log10,[3]; contact 10 min,6.16 Log10
same,Bacteria reduction %,[3]; contact 20 min,100%
same,Bacteria reduction Log10,[3]; contact 20 min,6.16 Log10
same,Bacteria reduction %,[4]; contact 5 min,100%
same,Bacteria reduction Log10,[4]; contact 5 min,6.76 Log10
same,Bacteria reduction %,[4]; contact 10 min,100%
same,Bacteria reduction Log10,[4]; contact 10 min,6.76 Log10
same,Bacteria reduction %,[4]; contact 20 min,100%
same,Bacteria reduction Log10,[4]; contact 20 min,6.76 Log10
same,Bacteria reduction %,[5]; contact 5 min,100%
same,Bacteria reduction Log10,[5]; contact 5 min,6.60 Log10
same,Bacteria reduction %,[5]; contact 10 min,100%
same,Bacteria reduction Log10,[5]; contact 10 min,6.60 Log10
same,Bacteria reduction %,[5]; contact 20 min,100%
same,Bacteria reduction Log10,[5]; contact 20 min,6.60 Log10
same,Bacteria reduction Log10,[6]; contact 5 min,6.63 Log10
same,Bacteria reduction %,"[6]; contact 5 min, inoculum 1.46-5.87 × 10^6 CFU/mL",100%
same,Bacteria reduction %,[6]; contact 10 min,100%
same,Bacteria reduction Log10,[6]; contact 10 min,6.63 Log10
same,Bacteria reduction %,[6]; contact 20 min,100%
same,Bacteria reduction Log10,[6]; contact 20 min,6.63 Log10
same,Bacteria reduction %,[7]; contact 5 min,100%
same,Bacteria reduction Log10,[7]; contact 5 min,6.67 Log10
same,Bacteria reduction %,[7]; contact 10 min,100%
same,Bacteria reduction Log10,[7]; contact 10 min,6.67 Log10
same,Bacteria reduction %,[7]; contact 20 min,100%
same,Bacteria reduction Log10,[7]; contact 20 min,6.67 Log10
same,Bacteria reduction %,[8]; contact 5 min,100%
same,Bacteria reduction Log10,[8]; contact 5 min,6.17 Log10
same,Bacteria reduction %,[8]; contact 10 min,100%
same,Bacteria reduction Log10,[8]; contact 10 min,6.17 Log10
same,Bacteria reduction %,[8]; contact 20 min,100%
same,Bacteria reduction Log10,[8]; contact 20 min,6.17 Log10
